Source: patent US7786141B2 (Vertex Pharmaceuticals Incorporated, priority 2004, dated 2010)
Read-outs that look alike come from different tables or passages of the source.

Assays:
M1 muscarinic receptor = target: T1, M1 muscarinic receptor (Homo sapiens, UniProt P11229); assay: Functional mobilization of intracellular calcium (FLIPR) in M1-CHO cells; format: cell-based
T1 construct: expressed in transfected cells; host or cells: CHO (M1-CHO)
T1 sequence (P11229 1-460): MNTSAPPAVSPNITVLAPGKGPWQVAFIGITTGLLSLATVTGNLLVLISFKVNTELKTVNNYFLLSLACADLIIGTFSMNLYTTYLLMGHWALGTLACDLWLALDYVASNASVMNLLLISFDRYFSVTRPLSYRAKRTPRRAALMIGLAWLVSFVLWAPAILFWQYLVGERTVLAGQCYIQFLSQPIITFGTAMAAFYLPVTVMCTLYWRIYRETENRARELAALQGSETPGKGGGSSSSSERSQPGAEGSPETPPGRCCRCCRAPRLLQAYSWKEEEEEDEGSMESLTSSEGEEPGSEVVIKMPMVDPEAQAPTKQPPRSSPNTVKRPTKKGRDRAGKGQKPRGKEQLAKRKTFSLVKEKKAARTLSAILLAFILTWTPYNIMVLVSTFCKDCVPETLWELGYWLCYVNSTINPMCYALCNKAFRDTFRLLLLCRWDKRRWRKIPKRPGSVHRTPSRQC
Summary of the method: (§1)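 Intracellular calcium rise is measured by FLIPR fluorescence over 60 sec in CHO cells carrying human M1 or M4 receptors. Compounds are tested alone as agonists, or pre-incubated 15 min (or co-applied) ahead of carbachol at its EC80 to detect inhibition.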

M4 muscarinic receptor = target: T2, M4 muscarinic receptor (Homo sapiens, UniProt P08173); assay: Functional mobilization of intracellular calcium (FLIPR) in M4-CHO cells; format: cell-based
T2 construct: expressed in transfected cells; host or cells: CHO (M4-CHO)
T2 sequence (P08173 1-479): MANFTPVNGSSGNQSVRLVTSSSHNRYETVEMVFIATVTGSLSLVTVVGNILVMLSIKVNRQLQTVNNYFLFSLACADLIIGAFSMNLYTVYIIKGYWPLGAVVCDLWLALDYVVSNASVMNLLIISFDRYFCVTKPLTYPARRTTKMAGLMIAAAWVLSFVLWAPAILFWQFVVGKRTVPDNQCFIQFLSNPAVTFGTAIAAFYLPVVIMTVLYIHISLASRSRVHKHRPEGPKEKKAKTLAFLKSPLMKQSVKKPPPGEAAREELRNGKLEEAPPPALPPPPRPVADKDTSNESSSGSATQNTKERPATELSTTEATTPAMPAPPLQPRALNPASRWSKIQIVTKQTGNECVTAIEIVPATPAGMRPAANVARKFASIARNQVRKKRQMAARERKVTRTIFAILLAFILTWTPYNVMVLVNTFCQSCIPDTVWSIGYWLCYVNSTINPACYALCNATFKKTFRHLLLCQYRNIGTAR
Summary of the method: as §1

[1] = Table 4, 100% efficacy is the maximum response obtained with the Carbachol control
[2] = Table 4, M1 receptor, calcium mobilization (FLIPR)
[3] = Table 4, M4 receptor, calcium mobilization (FLIPR)
[4] = M1 receptor, calcium mobilization
[5] = M1 receptor, calcium mobilization, read-out: M1 Efficacy
[6] = M4 receptor, calcium mobilization
[7] = M4 receptor, calcium mobilization, read-out: M4 Efficacy
[8] = Table 4, modulating M1 receptor
[9] = Table 4, modulating M4 receptor

SMILES	Emax (M1 muscarinic receptor; [1]) [%]	Emax (M4 muscarinic receptor; [1]) [%]	M1 Activity (M1 muscarinic receptor; [4])	Emax (M1 muscarinic receptor; [5]) [%]	M4 Activity (M4 muscarinic receptor; [6])	Emax (M4 muscarinic receptor; [7]) [%]	further results
CC(=O)NC1CCC2(CCN(CCC3CCCN(C(=O)N(C)C)C3)CC2)c2ccccc21 (stereo not drawn) [compound 888]	25 to 100	< 25					M1 Activity (M1 muscarinic receptor; [2]): xxx (activity was measured to be less than 2.0 μM); M4 Activity (M4 muscarinic receptor; [3]): x (activity was measured to be greater than 5.0 μM)
CCOC(=O)N1C2CCC1CC(N1CCC3(CC1)CN(C(C)=O)c1c(C)cc(C)cc13)C2 (stereo not drawn) [compound 827]	25 to 100	25 to 100					M1 Activity (M1 muscarinic receptor; [2]): xxx (activity was measured to be less than 2.0 μM); M4 Activity (M4 muscarinic receptor; [3]): xxx (activity was measured to be less than 2.0 μM)
O=C(N[C@H]1CC2(CCN(C3CC4CC[C@@H]3C4)CC2)c2ccccc21)N1CCOCC1 (stereo partly drawn) [compound 979]	25 to 100	25 to 100					M1 Activity (M1 muscarinic receptor; [2]): x (activity was measured to be greater than 5.0 μM); M4 Activity (M4 muscarinic receptor; [3]): xxx (activity was measured to be less than 2.0 μM)
CCOC(=O)N1CCC(CN2CCC3(CC2)CN(C(C)=O)c2ccc(C)cc23)CC1 [compound 46]			xxx (activity was measured to be less than 0.1 μM)	> 85	xxx (activity was measured to be less than 0.1 μM)	65 to 85	
CC(=O)N[C@H]1CCC2(CCN(CCC3CCN(C(C)=O)CC3)CC2)c2ccccc21 [compound 832]							M1 Efficacy (M1 muscarinic receptor; [1]): xx (efficacy was calculated to be between 100% and 25%); M1 Activity (M1 muscarinic receptor; [2]): xxx (activity was measured to be less than 2.0 μM); M4 Efficacy (M4 muscarinic receptor; [1]): xx (efficacy was calculated to be between 100% and 25%); M4 Activity (M4 muscarinic receptor; [3]): xxx (activity was measured to be less than 2.0 μM)
CC(=O)N[C@H]1CC2(CCN(CC(=O)N3CCCCC3)CC2)c2ccccc21 [compound 792]	25 to 100	25 to 100					M1 Activity (M1 muscarinic receptor; [8]): x (activity was measured to be greater than 5.0 μM); M4 Activity (M4 muscarinic receptor; [9]): x (activity was measured to be greater than 5.0 μM)
CCOC(=O)N1CCC(N2CCC3(CC2)CN(C2CCC(=O)CC2)c2ccc(F)cc23)CC1 [compound 951]	25 to 100	25 to 100					M1 Activity (M1 muscarinic receptor; [2]): xxx (activity was measured to be less than 2.0 μM); M4 Activity (M4 muscarinic receptor; [3]): xxx (activity was measured to be less than 2.0 μM)
CC(C)OC(=O)N1C2CCC1CC(N1CCC3(CC1)C(=O)Nc1ccccc13)C2 (stereo not drawn) [compound 139]			xxx (activity was measured to be less than 0.1 μM)	> 85	xxx (activity was measured to be less than 0.1 μM)	> 85	
CC(=O)NC1CC2(CCN(CC3CC4C=CC3C4)CC2)c2ccccc21 (stereo not drawn) [compound 185]			x (activity was measured to be greater than 1.0 μM)		x (activity was measured to be greater than 1.0 μM)		M1 Efficacy (M1 muscarinic receptor; [4]): xx (efficacy was calculated to be between 85% and 65%); M4 Efficacy (M4 muscarinic receptor; [6]): xx (efficacy was calculated to be between 85% and 65%)
Fc1ccc2c(c1)C1(CCN(C3CC4CCC3C4)CC1)CN2 (stereo not drawn) [compound 416]							EC50 (M1 muscarinic receptor; M1-CHO cells, calcium mobilization (FLIPR)): > 1000 nM; Emax (M1 muscarinic receptor; M1-CHO cells, calcium mobilization (FLIPR), read-out: M1 Efficacy): < 65%; EC50 (M4 muscarinic receptor; M4-CHO cells, calcium mobilization (FLIPR)): > 1000 nM; Emax (M4 muscarinic receptor; M4-CHO cells, calcium mobilization (FLIPR), read-out: M4 Efficacy): < 65%
CCOC(=O)N1CCC(N2CCC3(CC2)CN(C(C)=O)c2c(-c4ccccc4F)cccc23)CC1 [compound 661]	25 to 100	< 25					M1 Activity (M1 muscarinic receptor; [8]): x (activity was measured to be greater than 5.0 μM); M4 Activity (M4 muscarinic receptor; [9]): x (activity was measured to be greater than 5.0 μM)
O=C1CCCN1[C@H]1CCC2(CCN(C3CCCCCC3)CC2)c2ccccc21 [compound 945]	25 to 100	25 to 100					M1 Activity (M1 muscarinic receptor; [2]): xxx (activity was measured to be less than 2.0 μM); M4 Activity (M4 muscarinic receptor; [3]): xxx (activity was measured to be less than 2.0 μM)
CCCC(=O)N1CC2(CCN(C3CCN(C(=O)OCC)CC3)CC2)c2cc(F)ccc21 [compound 324]			xx (activity was measured to be between 0.1 μM and 1.0 μM)	65 to 85	x (activity was measured to be greater than 1.0 μM)	65 to 85	
CCOC(=O)N1CCC(N2CCC3(CC2)CN(C(C)=O)c2c(-c4ccc(C)cc4)cccc23)CC1 [compound 768]	25 to 100	< 25					M1 Activity (M1 muscarinic receptor; [8]): x (activity was measured to be greater than 5.0 μM); M4 Activity (M4 muscarinic receptor; [9]): x (activity was measured to be greater than 5.0 μM)
CC(F)CC(=O)N1CCC(N2CCC3(CC2)CN(C(=O)N(C)C)c2ccc(F)cc23)CC1 (stereo not drawn) [compound 921]	25 to 100	< 25					M1 Activity (M1 muscarinic receptor; [2]): x (activity was measured to be greater than 5.0 μM); M4 Activity (M4 muscarinic receptor; [3]): x (activity was measured to be greater than 5.0 μM)
CC(=O)N1CC2(CCN(CC3CC3)CC2)c2cc(F)ccc21 [compound 577]	< 25	< 25					M1 Activity (M1 muscarinic receptor; [8]): x (activity was measured to be greater than 5.0 μM); M4 Activity (M4 muscarinic receptor; [9]): x (activity was measured to be greater than 5.0 μM)
CCOC(=O)N1CCC(N2CCC3(CC2)CN(C(C)=O)c2ccc(C4CC4)cc23)CC1 [compound 245]			xx (activity was measured to be between 0.1 μM and 1.0 μM)	< 65	xx (activity was measured to be between 0.1 μM and 1.0 μM)	> 85	
COc1cccc(C(=O)N2CCC(N3CCC4(CC3)CN(C(=O)N(C)C)c3ccc(F)cc34)CC2)c1 [compound 770]	25 to 100	< 25					M1 Activity (M1 muscarinic receptor; [8]): xxx (activity was measured to be less than 2.0 μM); M4 Activity (M4 muscarinic receptor; [9]): xx (activity was measured to be between 2.0 μM and 5.0 μM)
CCOC(=O)N1C2CCC1CC(N1CCC3(CC1)c1ccccc1C(=O)C3(C)C)C2 (stereo not drawn) [compound 278]			xx (activity was measured to be between 0.1 μM and 1.0 μM)	65 to 85	xx (activity was measured to be between 0.1 μM and 1.0 μM)	65 to 85	
CCOC(=O)N1CCCC(N2CCCC3(CC2)CN(C(C)=O)c2ccc(F)cc23)CC1 (stereo not drawn) [compound 986]	25 to 100	25 to 100					M1 Activity (M1 muscarinic receptor; [2]): xxx (activity was measured to be less than 2.0 μM); M4 Activity (M4 muscarinic receptor; [3]): xxx (activity was measured to be less than 2.0 μM)
Clc1ccc2c(c1)C1(CCN(C3CCC4CCC3C4)CC1)CN2 (stereo not drawn) [compound 348]			xxx (activity was measured to be less than 0.1 μM)	> 85	xx (activity was measured to be between 0.1 μM and 1.0 μM)	> 85	
O=C(O)C1CC2(CCN(C3CCCC3)CC2)c2ccccc21 (stereo not drawn) [compound 542]	< 25	< 25					M1 Activity (M1 muscarinic receptor; [8]): x (activity was measured to be greater than 5.0 μM); M4 Activity (M4 muscarinic receptor; [9]): x (activity was measured to be greater than 5.0 μM)
CC#CCOC(=O)N1CCC(N2CCC3(CC2)CN(C(C)=O)c2ccc(F)cc23)CC1 [compound 102]			xxx (activity was measured to be less than 0.1 μM)	65 to 85	xx (activity was measured to be between 0.1 μM and 1.0 μM)	65 to 85	
CCOC(=O)N1CCC(CN2CCC3(CC2)CN(C(C)=O)c2c(C)cccc23)CC1 [compound 785]	25 to 100	25 to 100					M1 Activity (M1 muscarinic receptor; [8]): xx (activity was measured to be between 2.0 μM and 5.0 μM); M4 Activity (M4 muscarinic receptor; [9]): xxx (activity was measured to be less than 2.0 μM)
CCOC(=O)N1C2CCC1CC(N1CCC3(CC1)CN(C(=O)Oc1ccc(F)cc1)c1ccc(F)cc13)C2 (stereo not drawn) [compound 298]			x (activity was measured to be greater than 1.0 μM)	< 65	x (activity was measured to be greater than 1.0 μM)	65 to 85	
CCOC(=O)N1CCC(N2CCC3(CC2)CN(C(=O)c2ccccc2OC)c2ccc(F)cc23)CC1 [compound 262]			x (activity was measured to be greater than 1.0 μM)	< 65	x (activity was measured to be greater than 1.0 μM)	< 65	
CCOC(=O)N1CCC(N2CCC3(CC2)CN(C(=O)N2CCCCC2)c2ccccc23)CC1 [compound 688]	25 to 100	25 to 100					M1 Activity (M1 muscarinic receptor; [8]): xxx (activity was measured to be less than 2.0 μM); M4 Activity (M4 muscarinic receptor; [9]): xxx (activity was measured to be less than 2.0 μM)
